Test results: US20070110734A9, “Methods and compositions using cellular asialodeterminants and glycoconjugates for targeting cells to tissues and organs” (Department of Veterans Affairs, Rehabilitation R&D Service, priority 2002, published 2007)

Legend:
HEPG2 (ASGPR+) = test: Adherence of NK/LAK activity to HEPG2 monolayers at 23° C; format: cell-based, human
Experimental: (§1) This experiment is the same as above, except that the adherence to monolayers was performed at 23° C. and not 4° C., for 2 hours. Two monolayers were used: HEPG2, an ASGPR+ cell line, and CAKI-2 (human renal cell carcinoma), an ASGPR− cell line. The effector cell populations that were used were: an untreated 3-day old LAK preparation (LAK) and the same population treated with Vibrio cholera neuraminidase (LAK/NS) (30 mU/1×10^7 cells/200 μl). The neuraminidase-treated population was the asialopositive lymphocyte control. All cell populations regardless of treatment were greater than 90% viable at the time of assay. Each type of effector population was incubated with media alone, 200 μg/ml ASF or F, as controls. All effectors were assayed on RAJI (LAK-sensitive target; NK-insensitive target) or K562 (NK/LAK-sensitive target); the E:T ratios and the graphic presentation are the same above.
(§2) Five-day LAK preparations (20 U/ml; 1 Dupont unit=44.5 BRMP units) grown in AIM-V (Gibco) were treated (according to the protocols in B. 1.2.3 & 1.2.4) with 3 OmU Vibric Cholera neuramindase, 0.48 mU 2,3-or 10 mu 2,6-silalyltransferase per 107 cells. Some of the effectors were incubated in media, 10% PBS in RPMJ 1640 at 23° C. for 2 hours. 2×107 effectors from the untreated LALK, neuramithdase-treated LAK, LAK treated with 2,3 or 2,6 were suspended in 15 ml media and placed onto either HEPG2 (ASGPR+) or CAKI-2 (ASGPR−) monolayers at 23° C. for 2 hours. The flasks were rocked every 15 minutes. The nonadherent cells from these monolayers were decanted and assayed against K562 and RAJI, in addition to the unadhered controls. The E:T ratios used were 40, 20, 10, and 5 to 1.

[1] = tested on: K562 (NK/LAK-sensitive target); test: Cytotoxic capacity of IL-2 activated NK effectors in 51Cr-release assay on K562; format: cell-based, human
Experimental: as §1, §2

[2] = tested on: RAJI (LAK-sensitive target; NK-insensitive target); test: Cytotoxic capacity of LAK effectors in 51Cr-release assay on RAJI; format: cell-based, human; details: for LAK activity (killing of RAJI) after enzyme treatment of effector cell surface: enzyme-treated LAK cells
Experimental: Control cells (no IL-2 treatment) or LAK cells (IL-2-treated human peripheral blood lymphocytes cultured 10U IL-2/ml for 3 days) were adhered to a monolayer of HEP G2 cells for 2 hours at 4° C. The monolayer was pretreated either with asialofetuin (ASF, 200 μg/ml) in media or with fetuin (F, control, 200 μg/ml)) in media. After the Control or LAK cells had been incubated on the monolayer, these cells were then decanted, washed, and tested for cytotoxic capacity in a ^51Cr-release assay against the NK-resistant target, Raji.
as §1, §2

Caki-2 Targets = test: 51Cr-release assay of LAK effectors against CAKI-2 with agent added; format: cell-based, human; details: for % 51Chromium Release from Caki-2 Targets: agent 250 μg per well, 5-day LAK, 4-hour incubation
Excerpt: A working hypothesis is that LAK/NK cells bind to HEPG2 via at least two receptors or recognition structures: 1) the ASGPR, which binds an asialodeterminant on the LAK/NK population and 2) the “LAK” or “NK” recognition structure for a target epitope. The first should be inhibitable by ASF; the second should not be. Binding to CAKI-2 (ASGPR−) should not be inhibited by ASF and is due to a LAK or NK recognition structure binding to the target epitope. This can be further supported by data derived from experiments (see below) in which 250 μg/well of ASF or F were added to the ^51Cr-release assay of LAK effectors against the labeled target CAKI-2.
(% SPECIFIC RELEASE was determined from quadruplicates whose raw counts per minute differed by less than 10 percent; the assay was a standard 4-hour incubation.)

CAKI-2 (ASGPR−) = test: Adherence of NK/LAK activity to CAKI-2 monolayers at 23° C; format: cell-based, human
Experimental: as §1, §2

[3] = tested on: human CD34+ (hCD34+) peripheral blood stem cells; test: In vivo trafficking of 111In-labeled human CD34+ stem cells (HSC) after glycoprotein infusion, gamma camera imaging; design: species or system NOD-SCID mice; details: for organ localization of infused hematopoietic (CD34+) stem cells, in words: cells preceded by infusion of the protein, jugular vein, immunodeficient mice
Experimental: Intravenous cannulas were placed into the external jugular vein of NOD-SCID mice under anesthesia (Institutional Animal Care and Use Committee protocol #AM87046-07) to enable the efficient delivery of ^111In-labeled stem cells i.v. Tylenol elixir was administered by mouth after recovery from anesthesia. Briefly radiolabeled CD34+ cells were taken up in 100-250 ul of 5% human plasma albumin in saline and injected into the cannula and then flushed with 50 ul of the albumin-saline. The mice were imaged by nuclear medicine.
Mice: NOD-SCID, female mice (Nonobese diabetic/LtSz-scid/scid) were obtained from the Jackson Laboratory, Bar Harbor, Me. at 1-2 months of age. These animals were maintained in microisolator cages in a special isolator room. The air was HEPA filtered, and the animals were changed in a laminar flow hood within the facility. All food, bedding, and water was sterilized. […] See, e.g. Hogan, et al., Biology of Blood & Marrow Transplantation 3:236-246 (1997); Noort, et al., Bone Marrow Transplantation 22 Suppl 1:S58-60 (1998).
(§3) ^111Indium Oxine Labeling Procedure: ^111In-oxine labeling of adult human CD34+ or mesenchymal stem cells (hMSCs) was performed using a modification of the Amersham Healthcare Procedure for labeling autologous leukocytes.
(§4) Imaging procedures: Nuclear Medicine. NOD-SCID mice were anesthetized using rodent anesthesia cocktail. Once anesthetized, the mice were placed on a foam hemi-cylindrical mouse positioning device (MPD) and covered with a tube sock. The MPD allows better visual separation of the lungs and liver as compared to placing the mouse on a flat surface. The foam on which the mouse was placed, and the tube sock covering maintained a comfortable temperature permitting longer imaging without additional anesthesia. The MPD was placed on a narrow table between the dual heads of a Siemens E.Cam Gamma Camera and imaged statically or dynamically in 2-D or SPECT. ^57Co-Spot Marker is used to mark anatomic positions (nose, tail, cannula, etc.). The data was analyzed using a Siemens ICON system for regions of interest or percent of injected dose (e.g. liver, spleen, heart).
(§5) Gamma camera imaging using a Siemens E. Cam dual head gamma camera monitored the in vivo trafficking patterns of all human stem cells described in the following examples. Mice were placed on a Mouse Positioning Device (MPD) and placed between the detectors on the imaging platform.
5.75×10^6 111In-labeled human CD34+ (hCD34+) peripheral blood stem cells were administered intravenously (i.v.) via an external jugular vein cannula to 2 month old, NOD-SCID, female mice (Non-obese diabetic/LtSz-scid/scid) obtained from the Jackson Laboratory, Bar Harbor, Me. The radiolabeled CD34+ stem cells were administered after pretreatment of the mouse with 3.3 mg of asialoorosomucoid (ASO) i.v. The in vivo trafficking patterns were followed by gamma camera imaging using a Siemens E.Cam dual head gamma camera from immediately after injection up to 36 hr postinfusion. Human CD34+ were isolated from apheresis stem cell collection products derived from deceased cancer patients. They were purified to 95-99% purity using antibody conjugated to CD34 conjugated to magnetics beads (MACS) separation columns; Miltenyi Biotec, Auburn, Calif. and cryopreserved.
5.75×10^6 111In-labeled human CD34+ (hCD34+) peripheral blood stem cells were administered intravenously (i.v.) via an external jugular vein cannula to 2 month old, NOD-SCID, female mice (Non-obese diabetic/LtSz-scid/scid) obtained from the Jackson Laboratory, Bar Harbor, Me. The radiolabeled CD34+ stem cells were administered after pretreatment of the mouse with 5.5 mg of orosomucoid (O) i.v.
The preparation and procedures set forth in Example I were repeated. […]

[4] = tested on: human mesenchymal stem cells (MSC); test: In vivo trafficking of 111In-labeled human mesenchymal stem cells (MSC) after glycoprotein infusion, gamma camera imaging; design: species or system NOD-SCID mice; details: for % Infused Cells in Liver/Spleen: 0.56×10^6 MSC preceded by 4.3 mg ASO followed by 5.5 mg orosomucoid i.v.
Experimental: Human mesenchymal stem cells (hMSCs; PT-2501) obtained through a FDA monitored paid bone marrow donor program were purchased from Poietics Technologies, BioWhittaker (Walkerville, Md.). The cells were thawed according to manufacturer recommendations, resuspended, and radiolabeled in Mesenchymal Stem Cell Basal Medium (MSCBM).
as §3, §4, §5
MSC were obtained from BioWhittaker, (Poietics Division, cryopreserved PT-2501 >750,000 cells per ampoule) and labeled with ^111In as in previous examples, except that the MSC were labeled, washed, and injected in Basal Stem Cell Medium (Poietics) containing 5% human serum albumin (HSA). 0.56×10^6 111In labeled, human mesenchymal stem cells (MSC) were administered via an implanted Da Vinci Microport Vascular System cannula in the external jugular vein of a two-month old, female NOD-SCID mouse in 0.21 ml of basal stem cell medium containing 5% human serum albumin (HSA). Immediately prior to administration of MSC, 11.0 mg of orosomucoid was administered i.v. in 0.2 ml.
0.56×10^6 “In-labeled, MSC were administered i.v. in 0.21 ml of basal stem cell medium containing 5% human serum albumin (HSA). Prior to administration of MSC, 0.1 ml containing 4.3 mg of ASO, followed by 0.1 ml containing 5.5 mg orosomucoid were administered i.v. The ASO, orosomucoid and MSC were administered via an implanted Da Vinci Microport Vascular system cannula in the external jugular vein of a two-month old, female NOD-SCID mouse.

For fetuin [reference compound], the “inhibition of adherence to HEPG2 of LAK activity (assayed on RAJI)” value (HEPG2 (ASGPR+); 23° C, 200 μg/ml) was “could not be inhibited”, the “inhibition of adherence of LAK activity of the neuraminidase-treated population to HEPG2” value (HEPG2 (ASGPR+); 23° C, 200 μg/ml, assayed on RAJI) was “not” and the “inhibition of adherence to HEPG2 of IL-2 activated NK (assayed on K562)” value (HEPG2 (ASGPR+); 23° C, with or without neuraminidase treatment, 200 μg/ml) was “not”. For the same substance, the “ability of effectors (LAK or LAK/NS) to kill K562 after preincubation with the protein” value ([1]; 200 μg/ml, 23° C) was “does not affect”, the “activity of LAK or Control preparations incubated with the protein alone versus untreated LAK” value ([2]; 200 μg/ml for 2 h at 40C, no monolayer) was “identical activity” and the “ability of effectors (LAK or LAK/NS) to kill RAJI after preincubation with the protein” value ([2]; 200 μg/ml, 23° C) was “does not affect”. The “% 51Chromium Release from Caki-2 Targets” value (Caki-2 Targets; E:T 5:1) was 16%, the “% 51Chromium Release from Caki-2 Targets” value (Caki-2 Targets; E:T 10:1) was 27% and the “% 51Chromium Release from Caki-2 Targets” value (Caki-2 Targets; E:T 20:1) was 42%. The “% 51Chromium Release from Caki-2 Targets” value (Caki-2 Targets; E:T 40:1) was 58%, the “blocking of LAK killing of the tumor target CAKI-2, in words” value (Caki-2 Targets; preincubation of targets and addition to the assay at 250 μg per well) was “does not block” and the “inhibition of adherence to CAKI-2 of IL-2 activated NK or LAK activity” value (CAKI-2 (ASGPR−); 23° C, 200 μg/ml) was “could not be inhibited”.
For asialoorosomucoid [ASO], the “migration of CD34+ cells to the liver and spleen, in words” value ([3]; 5.75×10^6 HSC after 3.3 mg ASO i.v., early postinfusion images) was “did not migrate to the liver and spleen early”, the “organ localization of infused hematopoietic (CD34+) stem cells, in words” value [3] was “migrated immediately to the heart” and the “organ localization of infused hematopoietic (CD34+) stem cells, in words” value ([3]; listed as asialoorosomucoid) was “predominantly localize in the heart”. For the same substance, the “% Infused Cells in Liver/Spleen” value ([4]; 0 hr) was 63 ± 5% at 0 hr, the “% Infused Cells in Liver/Spleen” value ([4]; 1 hr) was 57 ± 7% at 1 hr and the “organ localization of infused mesenchymal stem cells, in words” value ([4]; cells preceded by infusion of the protein, jugular vein, immunodeficient mice) was “localize in the liver”.
In the case of “Neuraminidase: Vibrio cholera neuraminidase used to treat LAK cells and generate cell surface asialodeterminants”, the “adherence of LAK activity to HEPG2 (assayed on RAJI) after cell surface modification” value (HEPG2 (ASGPR+); 23° C for 2 hours) is reported as “did not”, the “IL-2 activated NK (killing K562 targets) after enzyme treatment of effector cell surface” value ([1]; enzyme-treated LAK cells) is reported as “does not enhance” and the “LAK activity (killing of RAJI) after enzyme treatment of effector cell surface” value [2] is reported as “enhances”. For the same substance, the “LAK activity (killing of RAJI) after enzyme treatment of effector cell surface” value ([2]; listed as neuraminidase) was “significantly enhanced” and the “adherence to CAKI-2 of IL-2 activated NK activity (assayed on K562) after cell surface modification” value (CAKI-2 (ASGPR−); 5-day LAK, 23° C for 2 hours) was “promotes adherence”.
